Values quoted from earlier work in patent publication US20150050358A1, “IMPLANT SUPPORT COMPOSITION AND METHODS OF USE” (REGENTS OF THE UNIVERSITY OF MINNESOTA, priority 2013, published 2015).

Details: antibiotic solution

For `Cc1ncc([N+](=O)[O-])n1CCO` [metronidazole], the pH of solution is listed as 4.5-7.0 pH.
